Experiments:
[1] = tested on: DNFB-induced mouse DTH response; test: DNFB-induced mouse delayed type hypersensitivity response (DTH); type: in vivo; settings: for Body weight after i.p.: control 21.9; for Body weight before i.p.: control 22.4
Procedure: Female Balb/c mice (age of 6-8 wk) were randomly divided into groups and immunized with 20 μl 0.5% DNFB solution in absolute acetone-olive oil (4:1) on each hind foot on day 0 and 1;
7-9 days after the initial immunization, mice were boosted with 10 μl 0.4% DNFB on both sides of the left ear, whereas the right ear was treated with vehicle alone;
Compounds were administered intraperitoneally (i.p.) or orally (p.o.) to the mice 1 h before DNFB booster immunization and 12 h later.
Ear swelling and other indexes were assessed 24-48 h after booster immunization.
Note: Female ICR mice (age of 6-8 wk) were immunized with 0.7% DNFB solution and boosted with 0.6% DNFB solution.

mice = test: Acute toxicity (LD50) test in mice, intraperitoneal injection; type: in vivo, mouse; settings: single intraperitoneal injection
Procedure: Mice were single administered with LLDT-8 by intraperitoneal injection, and observed for clinical signs of toxicity immediately and the following 14 days. Necropsy was performed on all animals that died and on all survivors at the end of the 2-week study. Death was seen from the next day after treatment and reached a peak at the 2-4 day. All gross pathological changes should be recorded for each animal. There was no gender difference in survival.
LLDT-8 is much less toxic than its parent compound, […].

rat adjuvant arthritis = test: Rat adjuvant arthritis (AA), therapeutic effect; type: in vivo; settings: i.p. for 14 days from day 19; especially at 2 mg/Kg/d
Procedure: Rats were immunized on day 0 by intradermal injection of Complete Freund's adjuvant (CFA), containing 10 mg heat-inactivated BCG in 1 ml paraffin oil, into the left hind paw in 0.1 ml for each rat. Inflammatory polyarthritis was induced in all immunized rats. Swelling in left paw and polyarthritic symptoms were seen from day 1, lasted for 4 days, and then diminished. Swelling in the same paw occurred again from day 8, reached the peak at day 16. The secondary symptoms, including the right hind paw swelling and polyarthritis, were seen from day 12. The polyarthritis severity was graded on a scale of 0-4: 0=no swelling; 1=isolated phalanx joint involvement; 2=involvement of phalanx joint and digits; 3=involvement of the entire region down to the ankle; 4=involvement of entire paw, including ankle.
Right hind paw volume was determined before immunization (basic value, day 0) and repeated every 3 days. Animals were sacrificed on day 15, and thymus and spleen were harvested for thymus and spleen index assessment. Result: The secondary symptoms were established when the right hind paw severely swelled 19 days after adjuvant injection. […] Comparing with AA model rat, LLDT-8 treatment, especially at dose of 2 mg/Kg/d, markedly withdrew the symptoms (FIG. 16 and FIG. 17).

[2] = Table 8, i.p., Balb/c mice, dosage 0.4 (mg/kg)
[3] = Table 8, i.p., Balb/c mice, dosage 4 (mg/kg)
[4] = Table 8, i.p., Balb/c mice, dosage 40 (mg/kg)

## CC(C)[C@]12O[C@H]1[C@@H]1O[C@]13[C@]1(O[C@H]1C[C@@]1(O)C4=C(CC[C@]31C)C(=O)OC4)[C@@H]2O [LLDT-8, (5R)-5-hydroxytriptolide]
[1]; Table 6, i.p. once a day for 2 days, ICR mice, dosage 1 mg/kg, control 30.0
  Right ear: 33.0 mg
[1]; Table 6, i.p. once a day for 2 days, ICR mice, dosage 1 mg/kg, control 31.1
  Ear swelling: 23.4 mg
[1]; Table 6, i.p. once a day for 2 days, ICR mice, dosage 1 mg/kg, control 61.1
  Left ear: 56.4 mg
[1]; Table 7, i.p. at low dosages, Balb/c mice, dosage 2 (mg/kg), control 23.3 ± 4.3
  Ear swelling X ± SD: 16.8 ± 5.4 mg
[1]; Table 7, i.p. at low dosages, Balb/c mice, dosage 2 (mg/kg), control 26.3
  Right ear: 27.5 mg
[1]; Table 7, i.p. at low dosages, Balb/c mice, dosage 2 (mg/kg), control 49.6
  Left ear: 44.3 mg
[1]; Table 7, i.p. at low dosages, Balb/c mice, dosage 8 (mg/kg), control 23.3 ± 4.3
  Ear swelling X ± SD: 16.6 ± 4.1 mg
[1]; Table 7, i.p. at low dosages, Balb/c mice, dosage 8 (mg/kg), control 26.3
  Right ear: 29.7 mg
[1]; Table 7, i.p. at low dosages, Balb/c mice, dosage 8 (mg/kg), control 49.6
  Left ear: 46.3 mg
[1]; Table 7, i.p. at low dosages, Balb/c mice, dosage 40 (mg/kg), control 23.3 ± 4.3
  Ear swelling X ± SD: 16.9 ± 2.7 mg
[1]; Table 7, i.p. at low dosages, Balb/c mice, dosage 40 (mg/kg), control 26.3
  Right ear: 25.7 mg
[1]; Table 7, i.p. at low dosages, Balb/c mice, dosage 40 (mg/kg), control 49.6
  Left ear: 42.6 mg
[1]; Table 7, i.p. at low dosages, Balb/c mice, dosage 200 (mg/kg), control 23.3 ± 4.3
  Ear swelling X ± SD: 17.1 ± 5.1 mg
[1]; Table 7, i.p. at low dosages, Balb/c mice, dosage 200 (mg/kg), control 26.3
  Right ear: 27.2 mg
[1]; Table 7, i.p. at low dosages, Balb/c mice, dosage 200 (mg/kg), control 49.6
  Left ear: 44.3 mg
[1]; [2]
  Body weight after i.p.: 22.6 g
  Body weight before i.p.: 22.3 g
[1]; Table 8, i.p., Balb/c mice, dosage 0.4 (mg/kg), control 22.7 ± 2.1
  Ear swelling X ± SD: 17.7 ± 4.7 mg
[1]; Table 8, i.p., Balb/c mice, dosage 0.4 (mg/kg), control 26.4
  Right ear: 29.2 mg
[1]; Table 8, i.p., Balb/c mice, dosage 0.4 (mg/kg), control 49.1
  Left ear: 47.0 mg
[1]; Table 8, i.p., Balb/c mice, dosage 0.4 (mg/kg), control 154.0
  Spleen: 164.2 mg
[1]; [3]
  Body weight after i.p.: 21.8 g
  Body weight before i.p.: 21.4 g
[1]; Table 8, i.p., Balb/c mice, dosage 4 (mg/kg), control 22.7 ± 2.1
  Ear swelling X ± SD: 15.3 ± 4.7 mg
[1]; Table 8, i.p., Balb/c mice, dosage 4 (mg/kg), control 26.4
  Right ear: 26.8 mg
[1]; Table 8, i.p., Balb/c mice, dosage 4 (mg/kg), control 49.1
  Left ear: 42.1 mg
[1]; Table 8, i.p., Balb/c mice, dosage 4 (mg/kg), control 154.0
  Spleen: 163.3 mg
[1]; [4]
  Body weight after i.p.: 21.4 g
  Body weight before i.p.: 21.6 g
[1]; Table 8, i.p., Balb/c mice, dosage 40 (mg/kg), control 22.7 ± 2.1
  Ear swelling X ± SD: 17.1 ± 4.9 mg
[1]; Table 8, i.p., Balb/c mice, dosage 40 (mg/kg), control 26.4
  Right ear: 29.6 mg
[1]; Table 8, i.p., Balb/c mice, dosage 40 (mg/kg), control 49.1
  Left ear: 46.7 mg
[1]; Table 8, i.p., Balb/c mice, dosage 40 (mg/kg), control 154.0
  Spleen: 168.5 mg
[1]; Table 9, p.o., Balb/c mice, dosage 1 mg/kg/d for 2 days, control 19
  Body weight after (i.p.): 21/21 g
[1]; Table 9, p.o., Balb/c mice, dosage 1 mg/kg/d for 2 days, control 20
  Body weight before (i.p.): 21/21 g
[1]; Table 9, p.o., Balb/c mice, dosage 1 mg/kg/d for 2 days, control 23.4
  Ear swelling: 13.1 mg
[1]; Table 9, p.o., Balb/c mice, dosage 1 mg/kg/d for 2 days, control 25.9
  Right ear: 27.3 mg
[1]; Table 9, p.o., Balb/c mice, dosage 1 mg/kg/d for 2 days, control 49.3
  Left ear: 40.4 mg
[1]; Table 9, p.o., Balb/c mice, dosage 1 mg/kg/d for 2 days, control 125.8
  Spleen: 124.4 mg
[1]; Table 10, p.o., ICR mice, dosage 0.04 mg/kg, control 33.7
  Right ear: 35.2 mg
[1]; Table 10, p.o., ICR mice, dosage 0.04 mg/kg, control 41.5
  Ear swelling: 33.8 mg
[1]; Table 10, p.o., ICR mice, dosage 0.04 mg/kg, control 75.2
  Left ear: 69.0 mg
[1]; Table 10, p.o., ICR mice, dosage 0.2 mg/kg, control 33.7
  Right ear: 38.2 mg
[1]; Table 10, p.o., ICR mice, dosage 0.2 mg/kg, control 41.5
  Ear swelling: 30.0 mg
[1]; Table 10, p.o., ICR mice, dosage 0.2 mg/kg, control 75.2
  Left ear: 68.2 mg
[1]; Table 10, p.o., ICR mice, dosage 1 mg/kg, control 33.7
  Right ear: 39.4 mg
[1]; Table 10, p.o., ICR mice, dosage 1 mg/kg, control 41.5
  Ear swelling: 24.1 mg
[1]; Table 10, p.o., ICR mice, dosage 1 mg/kg, control 75.2
  Left ear: 63.5 mg
mice; mice
  LD50 95% confidence limits: 7.7 to 11.3 mg/kg
mice; mice, 14 days, Bliss' method
  LD50: 9.3 mg/kg
mice
  pathological changes in tissues by gross necropsy in survivors at day 15: No significant pathological changes
Rat adjuvant arthritis
  polyarthritic symptoms (therapeutic): effectively cured the polyarthritic symptoms

Reference: patent US7626044B2, “Triptolide derivatives and their uses” (priority 2002, dated 2009)
